Source: patent publication US20200354426A1 (MEDIMMUNE LIMITED, priority 2016, published 2020)
Numbered stars: 1 amine (or outer) side, 2 acyl side, 3 side chain; on linkers, the order of the positions; unused ones are H or OH. Side chains are listed from the residue outwards. Peptide text beside a SMILES is read from it. * marks the point of attachment. γGlu = O=C(O)[C@H](CCC(=O)[*:2])N[*:1]; Palmitoyl = CCCCCCCCCCCCCCCC(=O)*; Ahx = NCCCCCC(=O)O

Tests used:
Experiment in all cases: cAMP activity assay in assay medium (assay 1)
Type in all cases: cell-based
Human GlucR = target: T1, Human GlucR (Homo sapiens, UniProt P47871); settings: assay medium; Table 4; read-out: hGlucR EC50
T1 construct: expressed in transfected cells
T1 sequence (P47871 26-477): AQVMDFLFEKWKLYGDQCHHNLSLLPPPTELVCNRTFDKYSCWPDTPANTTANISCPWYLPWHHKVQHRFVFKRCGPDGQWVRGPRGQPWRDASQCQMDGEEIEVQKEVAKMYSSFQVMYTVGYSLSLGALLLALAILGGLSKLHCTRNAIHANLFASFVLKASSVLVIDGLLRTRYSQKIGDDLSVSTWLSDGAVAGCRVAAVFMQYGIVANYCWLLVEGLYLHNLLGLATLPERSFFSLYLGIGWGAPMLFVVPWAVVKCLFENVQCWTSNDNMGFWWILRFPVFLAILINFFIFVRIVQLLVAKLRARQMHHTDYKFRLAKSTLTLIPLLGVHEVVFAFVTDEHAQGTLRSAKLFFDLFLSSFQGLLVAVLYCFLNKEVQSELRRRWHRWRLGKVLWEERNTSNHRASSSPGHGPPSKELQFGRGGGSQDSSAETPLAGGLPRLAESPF
Text: (§1) Biological Activity of Peptides in Cell-Based cAMP Activity Assay (Assay 1):
(§2) All sample dilutions were made in duplicate.

Human GIPr = target: T2, Human GIPr (Homo sapiens, UniProt P48546); settings: assay medium; Table 4; read-out: hGIPR EC50
T2 construct: expressed in transfected cells
T2 sequence (P48546 22-466): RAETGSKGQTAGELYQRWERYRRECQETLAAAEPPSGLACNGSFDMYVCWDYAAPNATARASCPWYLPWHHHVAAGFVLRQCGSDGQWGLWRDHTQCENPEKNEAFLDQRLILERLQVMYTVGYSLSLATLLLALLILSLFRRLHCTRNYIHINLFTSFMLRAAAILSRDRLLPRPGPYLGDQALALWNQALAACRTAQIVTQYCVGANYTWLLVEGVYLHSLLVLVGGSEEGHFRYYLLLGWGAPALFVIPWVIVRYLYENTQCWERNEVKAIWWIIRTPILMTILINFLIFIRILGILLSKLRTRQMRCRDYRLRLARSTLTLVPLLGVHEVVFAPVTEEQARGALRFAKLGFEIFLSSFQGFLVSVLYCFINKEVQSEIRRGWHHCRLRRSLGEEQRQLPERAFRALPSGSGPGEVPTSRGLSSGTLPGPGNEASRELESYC
Text: as §1, §2

Human GLP1R = Human GLP1R (Homo sapiens, UniProt P43220); set-up: expressed in transfected cells; settings: assay medium; Table 4; read-out: hGLP1R EC50
Chain of Human GLP1R (P43220 24-463): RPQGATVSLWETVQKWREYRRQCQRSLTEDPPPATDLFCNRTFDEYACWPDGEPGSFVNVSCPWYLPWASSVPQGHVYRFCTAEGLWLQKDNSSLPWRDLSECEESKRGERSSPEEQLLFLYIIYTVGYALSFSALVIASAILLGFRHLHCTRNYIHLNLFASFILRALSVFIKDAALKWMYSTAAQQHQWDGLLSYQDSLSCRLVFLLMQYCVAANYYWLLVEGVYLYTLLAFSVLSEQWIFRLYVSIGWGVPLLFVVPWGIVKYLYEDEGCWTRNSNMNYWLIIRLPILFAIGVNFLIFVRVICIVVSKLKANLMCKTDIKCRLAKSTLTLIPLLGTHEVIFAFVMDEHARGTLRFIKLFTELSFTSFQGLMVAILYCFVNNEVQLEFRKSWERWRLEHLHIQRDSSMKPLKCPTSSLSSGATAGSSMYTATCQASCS
Text: as §1, §2

## CCCCCCCCCCCCCCCC(=O)NCCCCCC(=O)NCCCC[C@H](NC(=O)[C@H](CO)NC(=O)[C@H](CC(=O)O)NC(=O)[C@H](CC(C)C)NC(=O)[C@H](Cc1ccc(O)cc1)NC(=O)[C@H](CCC(=O)O)NC(=O)[C@H](CO)NC(=O)[C@H](Cc1ccc(O)cc1)NC(=O)[C@H](CC(=O)O)NC(=O)[C@H](CO)NC(=O)[C@@H](NC(=O)[C@H](Cc1ccccc1)NC(=O)[C@@H](NC(=O)CNC(=O)[C@H](CCC(=O)O)NC(=O)CNC(=O)[C@@H](N)Cc1c[nH]cn1)[C@@H](C)O)[C@@H](C)O)C(=O)N[C@@H](CCCNC(=N)N)C(=O)N[C@@H](C)C(=O)N[C@@H](CCCNC(=N)N)C(=O)N[C@@H](CC(=O)O)C(=O)N[C@@H](Cc1ccccc1)C(=O)N[C@H](C(=O)N[C@@H](CCC(=O)O)C(=O)N[C@@H](Cc1c[nH]c2ccccc12)C(=O)N[C@@H](CC(C)C)C(=O)N[C@@H](CCC(=O)O)C(=O)N[C@@H](CCCNC(=N)N)C(=O)NCC(=O)NCC(N)=O)C(C)C [g726] (H-HGEGTFTSDYSEYLDSK([Ahx-Palmitoyl])RARDFVEWLERGG-NH2; N-terminus assumed)
Human GlucR
  EC50: 13.1 nM
Human GIPr
  EC50: 215 nM
Human GLP1R
  EC50: 0.00791 nM

## CCCCCCCCCCCCCCCC(=O)N[C@@H](CCC(=O)NCCCC[C@H](NC(=O)[C@H](CO)NC(=O)[C@H](Cc1ccc(O)cc1)NC(=O)[C@H](CC(=O)O)NC(=O)[C@H](CO)NC(=O)[C@@H](NC(=O)[C@H](Cc1ccccc1)NC(=O)[C@@H](NC(=O)CNC(=O)[C@H](CCC(N)=O)NC(=O)[C@H](CO)NC(=O)[C@@H](N)Cc1c[nH]cn1)[C@@H](C)O)[C@@H](C)O)C(=O)N[C@@H](Cc1ccc(O)cc1)C(=O)N[C@@H](CC(C)C)C(=O)N[C@@H](CC(=O)O)C(=O)N[C@@H](CO)C(=O)N[C@@H](CCC(=O)O)C(=O)N[C@@H](CCCNC(=N)N)C(=O)N[C@@H](C)C(=O)N[C@@H](CCCNC(=N)N)C(=O)N[C@@H](CC(=O)O)C(=O)N[C@@H](Cc1ccccc1)C(=O)N[C@H](C(=O)N[C@@H](C)C(=O)N[C@@H](Cc1c[nH]c2ccccc12)C(=O)N[C@@H](CC(C)C)C(=O)N[C@H](C(=O)N[C@@H](C)C(=O)NCC(=O)NCC(N)=O)C(C)C)C(C)C)C(=O)O [g728] (H-HSQGTFTSDYSK([γGlu-Palmitoyl])YLDSERARDFVAWLVAGG-NH2; N-terminus assumed)
Human GlucR
  EC50: 2.44 nM
Human GIPr
  EC50: 395 nM
Human GLP1R
  EC50: 0.169 nM

## CCCCCCCCCCCCCCCC(=O)N[C@@H](CCC(=O)NCCCC[C@H](NC(=O)[C@H](CCCNC(=N)N)NC(=O)[C@H](CO)NC(=O)[C@H](Cc1ccc(O)cc1)NC(=O)[C@H](CC(=O)O)NC(=O)[C@H](CO)NC(=O)[C@@H](NC(=O)[C@H](Cc1ccccc1)NC(=O)[C@@H](NC(=O)CNC(=O)[C@H](CCC(N)=O)NC(=O)[C@H](CO)NC(=O)[C@@H](N)Cc1c[nH]cn1)[C@@H](C)O)[C@@H](C)O)C(=O)N[C@@H](CC(C)C)C(=O)N[C@@H](CC(=O)O)C(=O)N[C@@H](CO)C(=O)N[C@@H](CCC(=O)O)C(=O)N[C@@H](CCCNC(=N)N)C(=O)N[C@@H](C)C(=O)N[C@@H](CCCNC(=N)N)C(=O)N[C@@H](CC(=O)O)C(=O)N[C@@H](Cc1ccccc1)C(=O)N[C@H](C(=O)N[C@@H](C)C(=O)N[C@@H](Cc1c[nH]c2ccccc12)C(=O)N[C@@H](CC(C)C)C(=O)N[C@H](C(=O)N[C@@H](C)C(=O)NCC(=O)NCC(=O)O)C(C)C)C(C)C)C(=O)O [g842] (H-HSQGTFTSDYSRK([γGlu-Palmitoyl])LDSERARDFVAWLVAGG-OH; N-terminus assumed)
Human GlucR
  EC50: 0.00831 nM
Human GIPr
  EC50: 88.3 nM
Human GLP1R
  EC50: 0.0512 nM

## CCCCCCCCCCCCCCCC(=O)NCCCCCC(=O)NCCCC[C@H](NC(=O)[C@H](CO)NC(=O)[C@H](CC(=O)O)NC(=O)[C@H](CC(C)C)NC(=O)[C@H](Cc1ccc(O)cc1)NC(=O)[C@H](CCC(=O)O)NC(=O)[C@H](CO)NC(=O)[C@H](Cc1ccc(O)cc1)NC(=O)[C@H](CC(=O)O)NC(=O)[C@H](CO)NC(=O)[C@@H](NC(=O)[C@H](Cc1ccccc1)NC(=O)[C@@H](NC(=O)CNC(=O)[C@H](CCC(N)=O)NC(=O)CNC(=O)[C@@H](N)Cc1c[nH]cn1)[C@@H](C)O)[C@@H](C)O)C(=O)N[C@@H](CCCNC(=N)N)C(=O)N[C@@H](C)C(=O)N[C@@H](CCCNC(=N)N)C(=O)N[C@@H](CC(=O)O)C(=O)N[C@@H](Cc1ccccc1)C(=O)N[C@H](C(=O)N[C@@H](C)C(=O)N[C@@H](Cc1c[nH]c2ccccc12)C(=O)N[C@@H](CC(C)C)C(=O)N[C@@H](CCC(=O)O)C(=O)N[C@@H](CCCNC(=N)N)C(=O)NCC(=O)NCC(=O)O)C(C)C [g727] (H-HGQGTFTSDYSEYLDSK([Ahx-Palmitoyl])RARDFVAWLERGG-OH; N-terminus assumed)
Human GlucR
  EC50: 0.218 nM
Human GIPr
  EC50: 177 nM
Human GLP1R
  EC50: 0.0263 nM

## CC(C)C[C@H](NC(=O)[C@H](Cc1ccc(O)cc1)NC(=O)[C@H](CCCCN)NC(=O)[C@H](CO)NC(=O)[C@H](Cc1ccc(O)cc1)NC(=O)[C@H](CC(=O)O)NC(=O)[C@H](CO)NC(=O)[C@@H](NC(=O)[C@H](Cc1ccccc1)NC(=O)[C@@H](NC(=O)CNC(=O)[C@H](CCC(N)=O)NC(=O)[C@H](CO)NC(=O)[C@@H](N)Cc1c[nH]cn1)[C@@H](C)O)[C@@H](C)O)C(=O)N[C@@H](CC(=O)O)C(=O)N[C@@H](CO)C(=O)N[C@@H](CCCNC(=N)N)C(=O)N[C@@H](CCCNC(=N)N)C(=O)N[C@@H](C)C(=O)N[C@@H](CCC(N)=O)C(=O)N[C@@H](CC(=O)O)C(=O)N[C@@H](Cc1ccccc1)C(=O)N[C@H](C(=O)N[C@@H](CCC(N)=O)C(=O)N[C@@H](Cc1c[nH]c2ccccc12)C(=O)N[C@@H](CC(C)C)C(=O)N[C@H](C(=O)N[C@@H](CCCNC(=N)N)C(=O)NCC(=O)NCC(=O)N[C@@H](CO)C(=O)N[C@@H](CO)C(=O)NCC(=O)NCC(=O)N[C@@H](CO)C(=O)N[C@@H](CO)C(N)=O)C(C)C)C(C)C [g316]
Human GlucR
  EC50: 0.0106 nM
Human GIPr
  EC50: 3.65 nM
Human GLP1R
  EC50: 0.0314 nM

## CCCCCCCCCCCCCCCC(=O)N[C@@H](CCC(=O)NCCCC[C@H](NC(=O)[C@H](Cc1ccc(O)cc1)NC(=O)[C@H](CCCCN)NC(=O)[C@H](CO)NC(=O)[C@H](Cc1ccc(O)cc1)NC(=O)[C@H](CC(=O)O)NC(=O)[C@H](CO)NC(=O)[C@@H](NC(=O)[C@H](Cc1ccccc1)NC(=O)[C@@H](NC(=O)CNC(=O)[C@H](CCC(N)=O)NC(=O)[C@H](CO)NC(=O)[C@@H](N)Cc1c[nH]cn1)[C@@H](C)O)[C@@H](C)O)C(=O)N[C@@H](CC(=O)O)C(=O)N[C@@H](CO)C(=O)N[C@@H](CCC(=O)O)C(=O)N[C@@H](CCCNC(=N)N)C(=O)N[C@@H](C)C(=O)N[C@@H](CCC(N)=O)C(=O)N[C@@H](CC(=O)O)C(=O)N[C@@H](Cc1ccccc1)C(=O)N[C@H](C(=O)N[C@@H](CCC(N)=O)C(=O)N[C@@H](Cc1c[nH]c2ccccc12)C(=O)N[C@@H](CC(C)C)C(=O)N[C@@H](CCC(=O)O)C(=O)N[C@@H](C)C(=O)NCC(=O)NCC(N)=O)C(C)C)C(=O)O [g816]
Human GlucR
  EC50: 0.0011 nM
Human GIPr
  EC50: 20 nM
Human GLP1R
  EC50: 0.0316 nM

## CCCCCCCCCCCCCCCC(=O)NCCCCCC(=O)NCCCC[C@H](NC(=O)[C@H](CO)NC(=O)[C@H](CC(=O)O)NC(=O)[C@H](CC(C)C)NC(=O)[C@H](Cc1ccc(O)cc1)NC(=O)[C@H](CCC(=O)O)NC(=O)[C@H](CO)NC(=O)[C@H](Cc1ccc(O)cc1)NC(=O)[C@H](CC(=O)O)NC(=O)[C@H](CO)NC(=O)[C@@H](NC(=O)[C@H](Cc1ccccc1)NC(=O)[C@@H](NC(=O)CNC(=O)[C@H](CCC(N)=O)NC(=O)[C@H](CO)NC(=O)[C@@H](N)Cc1c[nH]cn1)[C@@H](C)O)[C@@H](C)O)C(=O)N[C@@H](CCCNC(=N)N)C(=O)N[C@@H](C)C(=O)N[C@@H](CCCNC(=N)N)C(=O)N[C@@H](CC(=O)O)C(=O)N[C@@H](Cc1ccccc1)C(=O)N[C@H](C(=O)N[C@@H](C)C(=O)N[C@@H](Cc1c[nH]c2ccccc12)C(=O)N[C@@H](CC(C)C)C(=O)N[C@@H](CCC(=O)O)C(=O)N[C@@H](CCCNC(=N)N)C(=O)NCC(=O)NCC(=O)O)C(C)C [g826] (H-HSQGTFTSDYSEYLDSK([Ahx-Palmitoyl])RARDFVAWLERGG-OH; N-terminus assumed)
Human GlucR
  EC50: 0.00423 nM
Human GIPr
  EC50: 58 nM
Human GLP1R
  EC50: 0.0293 nM

## CCCCCCCCCCCCCCCC(=O)N[C@@H](CCC(=O)NCCCC[C@H](NC(=O)[C@H](CO)NC(=O)[C@H](CC(=O)O)NC(=O)[C@H](CC(C)C)NC(=O)[C@H](Cc1ccc(O)cc1)NC(=O)[C@H](CCCCN)NC(=O)[C@H](CO)NC(=O)[C@H](Cc1ccc(O)cc1)NC(=O)[C@H](CC(=O)O)NC(=O)[C@H](CO)NC(=O)[C@@H](NC(=O)[C@H](Cc1ccccc1)NC(=O)[C@@H](NC(=O)CNC(=O)[C@H](CCC(N)=O)NC(=O)CNC(=O)[C@@H](N)Cc1c[nH]cn1)[C@@H](C)O)[C@@H](C)O)C(=O)N[C@@H](CCCNC(=N)N)C(=O)N[C@@H](C)C(=O)N[C@@H](CCCNC(=N)N)C(=O)N[C@@H](CC(=O)O)C(=O)N[C@@H](Cc1ccccc1)C(=O)N[C@H](C(=O)N[C@@H](CCC(=O)O)C(=O)N[C@@H](Cc1c[nH]c2ccccc12)C(=O)N[C@@H](CC(C)C)C(=O)N[C@H](C(=O)N[C@@H](C)C(=O)NCC(=O)NCC(N)=O)C(C)C)C(C)C)C(=O)O [g660] (H-HGQGTFTSDYSKYLDSK([γGlu-Palmitoyl])RARDFVEWLVAGG-NH2; N-terminus assumed)
Human GlucR
  EC50: 1.52 nM
Human GIPr
  EC50: 332 nM
Human GLP1R
  EC50: 1.06 nM
